Here are results for twelve compounds from patent US11420910B2, “Methods for low temperature fluorine-18 radiolabeling of biomolecules” (KATHOLIEKE UNIVERSITEIT LEUVEN, priority 2014, dated 2022).

The nature of data set [1]: Stability tests in PBS (0.1 M, pH 7.4) at 37° C., Examples 29 and 33. It is filed as physicochemical. To be noted: for % intact tracer: PBS 0.1M pH 7.4, 37° C.; for stability in PBS (in words): 37° C.
Description: (§4) These mixtures were incubated at 37° C. and analysed by iTLC-SG at 10, 30, 60, 120, 180 and 240 min after the start of the incubation (N=3). Serum samples were denatured by addition of 50 μl of the serum solution to 50 μl of acetonitrile. The mixture was stirred and centrifuged (1300 g, 3 min). Finally the supernatant was analysed using iTLC-SG.
The nature of data set [2]: Stability tests in rat serum at 37° C., Examples 29 and 33.
Description: as §4
Data set [3] in a line: Biodistribution of Al18F-complexes and {Al18F}2+ in healthy male NMRI mice. It is filed as in vivo. To be noted: for uptake in blood / uptake in bone / uptake in intestines / uptake in kidneys / uptake in liver / uptake in urinary bladder: NMRI mice, tail vein. The procedure:
(§1) Quantification of radioactivity during biodistribution studies was performed using an automated gamma counter equipped with a 3-inch NaI(TI) well crystal coupled to a multichannel analyzer, mounted in a sample changer (Perkin Elmer 1480 Wizard 3q). Counts were corrected for background radiation, physical decay and counter dead time.
(§2) The biodistribution of the [Al^18F]-L3 complex and {Al^18F}^2+ was determined in healthy male Naval Medical Research Institute (NMRI) mice (body weight: 30-40 g) at 10 and 60 min post injection (p.i.) (n=4/time point). Mice were injected with the [Al^18F]-L3 complex (about 1 MBq) or {Al^18F}^2+ (5.55 MBq) via a tail vein under anesthesia (2.5% isoflurane in O2 at 1 L/min flow rate) and sacrificed by decapitation at above specified time points. Blood and major organs were collected in tared tubes and weighed. The radioactivity in blood, organs and other body parts was counted using an automated γ-counter. For the calculation of total radioactivity in blood, bone and muscle, masses were assumed to be, respectively, 7, 12 and 40% of the total body mass.^20, 21
Quantification of radioactivity during biodistribution studies was performed using an automated gamma counter equipped with a 3-inch Nai(TI) well crystal coupled to a multichannel analyzer, mounted in a sample changer (Perkin Elmer 1480 Wizard 3q). Counts were corrected for background radiation, physical decay and counter dead time.
as §2, with “[Al^18F]-L26” for “[Al^18F]-L3”, “(n=3/time point for 10 min p.i. and n=4/time point for 60 min p.i.).” for “(n=4/time point).”, “mass.^20,21” for “mass.^20, 21”

Data set [4] can be described thus: Stability tests of Al18F-complexes in different buffers ranging from pH 2 to 8 (room temperature, iTLC-SG). The class given is physicochemical. The following applies: buffers pH 2 to 8, room temperature, 30 and 60 min. The procedure: 200 μl of the purified Al^18F-L3 solution was added to 1 mL of sodium phosphate buffer (0.1 M, pH 2), sodium phosphate buffer (0.1 M, pH 3), sodium acetate buffer (0.1 M, pH 4), sodium acetate buffer (0.1 M, pH 5), sodium acetate buffer (0.1 M, pH 6), PBS buffer (0.1 M, pH 7) or Tris-HCl buffer (0.1 M, pH 8). These mixtures were incubated at room temperature and analyzed by iTLC-SG at 30 and 60 min after the start of the incubation.
200 μl of the purified Al^18F-L26 solution was added to 1 mL of sodium phosphate buffer (0.1 M, pH 2), sodium phosphate buffer (0.1 M, pH 3), sodium acetate buffer (0.1 M, pH 4), sodium acetate buffer (0.1 M, pH 5), sodium acetate buffer (0.1 M, pH 6), PBS buffer (0.1 M, pH 7) or Tris-HCl buffer (0.1 M, pH 8). These mixtures were incubated at room temperature and analyzed by iTLC-SG at 30 and 60 min after the start of the incubation.

Data set [5] is described as follows: Stability tests of Al18F-complexes in PBS (0.1 M, pH 7) at 37° C., Example 26. The class given is physicochemical. To be noted: PBS 0.1 M pH 7, 37° C. The procedure:
(§3) 400 μl of each purified [Al^18F]-complex solution was added to 1 mL of PBS and/or 1 mL of rat serum. […] Finally the supernatant was analysed using iTLC-SG.

A short description of data set [6]: Stability tests of Al18F-complexes in rat serum at 37° C., Example 26. The class given is in vitro ADME. The procedure: as §3
Data set [7] concerns the target T1, PSMA (Mus musculus, UniProt O35409).
T1 construct: organs with reported high expression of PSMA such as kidney; from tissue; host or cells: living mice; kidney, spleen and other organs counted ex vivo
Description: Biodistribution of PSMA tracers in mice with or without coadministration of 2-PMPA. The class given is in vivo. The procedure: The compounds ^68Ga-HBED-CC-PSMA, Al^18F-L6-PSMA, Al^18F-L27-PSMA or Al^18F-NODA-MPAA-PSMA were injected via the tail vain (1-2 MBq) with or without coadministration of 2 mg/kg 2-PMPA. At 10 min or 60 min p.i. (N=4), the animals were sacrificed. Blood and major organs were collected in tarred tubes and weighed. The radioactivity was measured using an automated γ-counter and calculated as % ID and % ID/g.
as §1

The structures appear in SMILES notation. Several values for one entry are separate records, joined by “and”; a condition that tells them apart may be missing. Equal values may be shown once. Entries after “also recorded” stand apart in the source; their conditions may differ.

T1 sequence (O35409 whole entry): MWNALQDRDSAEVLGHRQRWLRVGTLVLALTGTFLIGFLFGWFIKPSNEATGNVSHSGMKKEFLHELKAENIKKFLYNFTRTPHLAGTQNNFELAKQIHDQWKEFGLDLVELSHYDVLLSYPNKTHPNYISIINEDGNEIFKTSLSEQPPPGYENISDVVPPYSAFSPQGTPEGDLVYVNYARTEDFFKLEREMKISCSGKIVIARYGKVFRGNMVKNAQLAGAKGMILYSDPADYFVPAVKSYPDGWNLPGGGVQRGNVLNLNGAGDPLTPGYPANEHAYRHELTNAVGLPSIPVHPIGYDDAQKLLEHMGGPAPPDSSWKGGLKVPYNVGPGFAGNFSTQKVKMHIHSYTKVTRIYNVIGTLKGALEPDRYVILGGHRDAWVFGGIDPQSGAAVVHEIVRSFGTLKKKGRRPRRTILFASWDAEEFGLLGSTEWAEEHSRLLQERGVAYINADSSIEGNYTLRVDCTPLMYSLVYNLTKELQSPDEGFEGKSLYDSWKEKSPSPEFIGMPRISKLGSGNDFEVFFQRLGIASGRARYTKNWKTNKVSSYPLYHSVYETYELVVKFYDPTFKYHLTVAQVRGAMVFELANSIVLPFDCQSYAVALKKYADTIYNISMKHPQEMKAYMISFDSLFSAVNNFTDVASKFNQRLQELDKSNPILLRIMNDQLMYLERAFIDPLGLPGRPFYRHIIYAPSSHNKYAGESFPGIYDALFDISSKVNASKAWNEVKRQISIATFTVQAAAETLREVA

As for `O=C1CN2CC(=O)[O][Al-]([18F])([O]1)[O]C(=O)CN(Cc1ccccc1)[C@@H]1CCCC[C@H]12` (racemic) [Al^18F-L26], the “% intact tracer” value came to 99.1% in data set [1] (10 min); 98.0% in data set [1] (30 min); 97.8% in data set [1] (1 h); 91.0% in data set [1] (2 h); 95.3% in data set [1] (3 h); 87.3% in data set [1] (4 h). Besides, the “% intact tracer” value was 97.2% in data set [2] (10 min); 99.0% in data set [2] (30 min); 98±2.3% and 97.3% in data set [2] (1 h); 86.7% in data set [2] (2 h); 91.6% in data set [2] (3 h); 91±2.4% and 91.2% in data set [2] (4 h). Further, in data set [1], the “stability in PBS (in words)” value is “excellent stability; also recorded: stability comparable to that of the previously reported Al^18F-NODA”. Besides, the “stability in rat serum (in words)” value in data set [2] is recorded as “excellent stability; also recorded: stability comparable to that of the previously reported Al^18F-NODA”. The uptake in blood in data set [3] (10 min p.i.) was 2.0 % ID and 1.9 % ID; in data set [3] (60 min p.i.), 0.1 % ID. Moreover, the uptake in bone in data set [3] (10 min p.i.) was found to be 1.6 % ID; in data set [3] (60 min p.i.), 1.9 % ID. The figures for the uptake in intestines in data set [3] (10 min p.i.) and in data set [3] (60 min p.i.) were 19.6 % ID and 62.7 % ID, respectively. Besides, the uptake in kidneys turned out to be 4.6 % ID in data set [3] (10 min p.i.) and 0.2 % ID in data set [3] (60 min p.i.). In addition, the uptake in liver in data set [3] (10 min p.i.) amounted to 49.5 % ID; in data set [3] (60 min p.i.) it was 8.8 % ID. The “uptake in urinary bladder” value in data set [3] (10 min p.i.) stood at 14.3 % ID; in data set [3] (60 min p.i.), 21.5 % ID. The “route of clearance (in words)” value in data set [3] (mice, 60 min p.i.) is listed as “hepatobiliary clearance”. Further, the “in vivo stability judged from bone uptake (in words)” value in data set [3] (mice, biodistribution) was “high stability”. Also, the “stability at different pH (in words)” value in data set [4] is listed as “stable for at least 60 min in the pH range from 2 to 8”.

As for `O=C1CN2CCN(Cc3ccccc3)CC(=O)[O][Al-]([18F])([O]1)[O]C(=O)C2` [Al^18F-L1], the “stability in PBS (in words)” value in data set [5] is “do not seem to be stable”. The “stability in rat serum (in words)” value in data set [6] is reported as “unstable in serum”. Besides, the RCP in data set [6] (120 min) amounted to 0%.

In the case of `O=C1CN(Cc2ccccc2O)CCN2CC(=O)[O][Al-]([18F])([O]1)[O]c1ccccc1C2` (stereo not shown) [Al^18F-L2], the “stability in PBS (in words)” value in data set [5] was “do not seem to be stable”. The RCP in data set [5] (120 min) is listed as 31%; in data set [6] (120 min) it was 0%. For the same compound, the “stability in rat serum (in words)” value in data set [6] is recorded as “unstable in serum”.

Turning to `O=C1CN(Cc2ccccc2)CCN2CC(=O)[O][Al-]([18F])([O]1)[O]c1ccc(F)cc1C2` (stereo not shown) [Al^18F-L4], in data set [5], the “stability in PBS (in words)” value is reported as “comparable to that of Al^18F-NODA-benzyl up to 60 minutes”. The RCP stood at 85% in data set [5] (120 min), 74% in data set [5] (240 min) and 41% in data set [6] (240 min). Also, in data set [6], the “stability in rat serum (in words)” value is on record as “good stability in rat serum”.

For the compound `O=C1CN(Cc2ccccc2)CCN2CC(=O)[O][Al-]([18F])([O]1)[O]c1ccc([N+](=O)[O-])cc1C2` (stereo not shown) [Al^18F-L5], in data set [5], the “stability in PBS (in words)” value is on record as “comparable to that of Al^18F-NODA-benzyl up to 60 minutes”. Further, the RCP in data set [5] (120 min) turned out to be 78%; in data set [5] (240 min), 65%; in data set [6] (240 min), 39%. For the same compound, the “stability in rat serum (in words)” value in data set [6] is “good stability in rat serum”.

As for `O=C1CN(Cc2ccccc2)CCN(Cc2ccccn2)CC(=O)[O][Al]([18F])[O]1` [Al^18F-L7], in data set [5], the “stability in PBS (in words)” value was “do not seem to be stable”.

On to `O=C1CN2CC(=O)[O][Al-]([18F])([O]1)[O]C(=O)CN(Cc1ccccc1)C1CC=CCC12` (stereo not shown) [Al^18F-L30], for which the “stability in PBS (in words)” value in data set [1] was “only moderate stability”.

For the compound `O=C1CN2CC(=O)[O][Al-]([18F])([O]1)[O]C(=O)CN(Cc1ccccc1)C1CCCC12` (stereo not shown) [Al^18F-L31], the “% intact tracer” value in data set [1] (1 h) is 0%. Further, the “stability in PBS (in words)” value in data set [1] is recorded as “unstable”.

In the case of `O=C1CN2CC(=O)[O][Al-]([18F])([O]1)[O]C(=O)CN(Cc1ccccc1)c1ccccc12` [Al^18F-L32], the “% intact tracer” value in data set [1] (1 h) is reported as 0%. In addition, the “stability in PBS (in words)” value in data set [1] was “unstable”.

In the case of `O=C1CN2CCN(CCN(Cc3ccccc3)CC2)CC(=O)[O][Al]([18F])[O]1` [Al^18F-NODA-benzyl, reference compound], the RCP in data set [5] (60 min) is reported as 99%; in data set [5] (120 min) it was 98%; in data set [5] (240 min), 88%; in data set [6] (60 min), 99%; in data set [6] (120 min), 97%; in data set [6] (240 min) it was 87%.

On to `O=C([O-])CN(CCN(CC(=O)[O-])Cc1cc(CCC(=O)NCCCCCC(=O)NCCCC[C@H](NC(=O)N[C@@H](CCC(=O)O)C(=O)O)C(=O)O)ccc1[O-])Cc1cc(CCC(=O)O)ccc1[O-].[68Ga+3].[OH3+]` [^68Ga-HBED-CC-PSMA], for which, in data set [7], the “affinity for the PSMA receptor indicated by spleen and kidney uptake (in words)” value is on record as “high affinity for the PSMA receptor”; the “in vivo stability judged from bone uptake (in words)” value is listed as “high in vivo stability”. In data set [7] (60 min p.i., 2 mg/kg 2-PMPA), the “kidney and spleen retention when 2-PMPA was coinjected (in words)” value was “nearly completely blocked”. Besides, in data set [7] (60 min p.i., without 2-PMPA), the retention in kidney came out at 269.90±47.23 % ID/g and the retention in spleen stood at 2.72±0.42 % ID/g. Moreover, the bone uptake in data set [7] (tail vein, time point not stated) is recorded as 0.39±0.09 % ID/g.

In data set [3] (10 min p.i.), `[18F][Al+2]` [{Al^18F}^2+, reference compound] yielded an uptake in blood of 5.0 % ID, an uptake in bone of 60 % ID, an uptake in intestines of 4.22 % ID and an uptake in kidneys of 2.2 % ID. Moreover, in data set [3] (10 min p.i.), the uptake in liver is listed as 3.71 % ID and the “uptake in urinary bladder” value is given as 20.7 % ID. Also, in data set [3] (60 min p.i.), the uptake in blood was found to be 0.6 % ID; the uptake in bone is 83 % ID and 83.3 % ID; the uptake in intestines was determined as 1.91 % ID; the uptake in kidneys worked out at 0.5 % ID. For the same compound, in data set [3] (60 min p.i.), the uptake in liver is on record as 0.55 % ID and the “uptake in urinary bladder” value is 30.6 % ID.
